# Tests used:
# [1] = target: T1, MET (Homo sapiens, UniProt P08581); experiment: Test C: inhibition of the autophosphorylation of MET, ELISA technique (pppY1230, 1234, 1235), MKN45 cells; type: cell-based
# T1 construct: endogenous in cells; host or cells: MKN45 cells
# Method in brief: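 MKN45 cells adhered 24 h, then treated 1 h with compound at 6 concentrations in duplicate, final range 10000 to 30 nM. Lysates assayed by phospho-MET (pY1230/1234/1235) sandwich ELISA with HRP chromogen read at 450 nm.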
# [2] = target: RON (Homo sapiens, UniProt Q04912); experiment: Test B: HTRF RON test in 96-well format; type: biochemical
# Chain of RON (Q04912 25-1400): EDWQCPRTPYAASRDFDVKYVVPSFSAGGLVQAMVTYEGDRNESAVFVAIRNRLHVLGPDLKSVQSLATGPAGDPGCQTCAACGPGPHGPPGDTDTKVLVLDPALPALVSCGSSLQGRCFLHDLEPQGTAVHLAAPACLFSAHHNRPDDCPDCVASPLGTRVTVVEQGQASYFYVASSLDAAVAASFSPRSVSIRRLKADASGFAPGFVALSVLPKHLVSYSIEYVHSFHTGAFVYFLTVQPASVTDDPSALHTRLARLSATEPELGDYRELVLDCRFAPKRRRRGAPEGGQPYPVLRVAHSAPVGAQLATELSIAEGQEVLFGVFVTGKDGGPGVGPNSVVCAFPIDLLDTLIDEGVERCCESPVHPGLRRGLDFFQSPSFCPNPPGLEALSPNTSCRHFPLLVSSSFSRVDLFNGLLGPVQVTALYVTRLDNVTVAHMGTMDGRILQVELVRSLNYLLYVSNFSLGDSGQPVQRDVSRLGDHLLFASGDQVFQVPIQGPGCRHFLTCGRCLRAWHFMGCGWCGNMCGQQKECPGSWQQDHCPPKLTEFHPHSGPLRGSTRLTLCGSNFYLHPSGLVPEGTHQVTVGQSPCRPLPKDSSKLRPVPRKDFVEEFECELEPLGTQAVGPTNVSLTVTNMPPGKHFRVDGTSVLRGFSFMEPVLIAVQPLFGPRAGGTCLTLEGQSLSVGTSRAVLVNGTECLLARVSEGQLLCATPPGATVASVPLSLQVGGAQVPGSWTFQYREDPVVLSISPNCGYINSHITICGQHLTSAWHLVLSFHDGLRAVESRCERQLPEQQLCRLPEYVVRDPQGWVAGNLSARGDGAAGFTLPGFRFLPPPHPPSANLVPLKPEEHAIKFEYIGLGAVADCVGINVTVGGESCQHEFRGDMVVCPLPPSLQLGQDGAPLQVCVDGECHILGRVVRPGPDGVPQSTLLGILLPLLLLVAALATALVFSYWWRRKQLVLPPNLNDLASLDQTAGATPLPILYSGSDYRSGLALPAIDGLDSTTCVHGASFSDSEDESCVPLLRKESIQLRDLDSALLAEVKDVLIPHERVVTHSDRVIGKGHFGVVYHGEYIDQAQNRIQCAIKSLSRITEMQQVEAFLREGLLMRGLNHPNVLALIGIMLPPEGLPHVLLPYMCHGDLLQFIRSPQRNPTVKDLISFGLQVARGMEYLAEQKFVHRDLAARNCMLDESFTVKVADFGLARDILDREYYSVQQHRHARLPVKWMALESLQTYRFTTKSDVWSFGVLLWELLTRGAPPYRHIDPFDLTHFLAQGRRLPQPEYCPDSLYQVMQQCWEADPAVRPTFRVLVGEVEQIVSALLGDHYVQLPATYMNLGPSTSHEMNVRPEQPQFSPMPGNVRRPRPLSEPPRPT
# Method in brief: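 RON 5 nM pre-incubated 30 min at RT with compound (0.17 nM–10 μM final, 3% DMSO) in MOPS 10 mM pH 7, DTT, Tween 20. Reaction with biotinylated poly-(GAT) 1 μg/ml, ATP 10 μM, MgCl2 5 mM, 30 min RT. Eu-anti-pTyr/streptavidin-XL665 HTRF, 665/620 ratio gives % inhibition, IC50.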
# T1 sequence (P08581 25-1390): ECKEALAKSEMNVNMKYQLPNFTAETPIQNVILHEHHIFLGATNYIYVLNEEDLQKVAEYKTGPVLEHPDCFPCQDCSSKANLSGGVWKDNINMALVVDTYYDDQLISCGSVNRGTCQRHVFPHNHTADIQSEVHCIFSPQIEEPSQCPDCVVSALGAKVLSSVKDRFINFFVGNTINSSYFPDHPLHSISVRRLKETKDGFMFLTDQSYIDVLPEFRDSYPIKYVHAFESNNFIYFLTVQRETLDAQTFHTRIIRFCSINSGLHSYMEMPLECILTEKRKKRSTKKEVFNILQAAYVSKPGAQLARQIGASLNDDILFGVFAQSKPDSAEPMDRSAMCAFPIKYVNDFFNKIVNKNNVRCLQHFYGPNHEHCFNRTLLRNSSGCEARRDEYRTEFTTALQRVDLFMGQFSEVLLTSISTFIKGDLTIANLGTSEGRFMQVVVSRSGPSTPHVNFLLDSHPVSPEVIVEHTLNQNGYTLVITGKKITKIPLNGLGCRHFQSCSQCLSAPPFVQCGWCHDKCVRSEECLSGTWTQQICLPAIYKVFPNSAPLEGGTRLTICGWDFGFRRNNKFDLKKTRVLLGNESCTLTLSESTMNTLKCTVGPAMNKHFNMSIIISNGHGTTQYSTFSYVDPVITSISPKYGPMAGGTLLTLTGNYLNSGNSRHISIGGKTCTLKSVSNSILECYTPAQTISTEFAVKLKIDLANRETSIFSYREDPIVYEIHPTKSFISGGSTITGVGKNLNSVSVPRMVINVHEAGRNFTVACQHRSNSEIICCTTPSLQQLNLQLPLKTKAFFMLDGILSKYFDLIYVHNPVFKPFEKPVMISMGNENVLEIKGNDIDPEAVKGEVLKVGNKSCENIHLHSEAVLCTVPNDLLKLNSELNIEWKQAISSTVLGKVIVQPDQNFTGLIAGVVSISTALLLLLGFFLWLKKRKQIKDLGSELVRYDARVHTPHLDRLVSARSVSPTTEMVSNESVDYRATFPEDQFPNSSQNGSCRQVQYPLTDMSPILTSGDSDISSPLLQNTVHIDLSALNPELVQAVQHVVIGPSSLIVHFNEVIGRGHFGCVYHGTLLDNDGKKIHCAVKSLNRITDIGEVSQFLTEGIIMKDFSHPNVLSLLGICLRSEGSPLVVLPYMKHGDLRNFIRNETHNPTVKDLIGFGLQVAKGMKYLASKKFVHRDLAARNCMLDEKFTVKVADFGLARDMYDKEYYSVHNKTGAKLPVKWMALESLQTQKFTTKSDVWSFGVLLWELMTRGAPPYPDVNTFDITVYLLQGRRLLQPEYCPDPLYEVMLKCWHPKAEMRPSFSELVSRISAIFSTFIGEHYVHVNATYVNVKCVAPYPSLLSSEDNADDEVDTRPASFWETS
IC50 [1],IC50 [2],Structure (SMILES)
500 to 10000 nM,500 to 10000 nM,"CC(Oc1cc2sc(NC(=O)NCCOCc3ccccc3)nc2cc1F)c1c(Cl)ccc(F)c1Cl (centres unmarked) [Example 97, 1-[2-(benzyloxy)ethyl]-3-{6-[1-(2,6-dichloro-3-fluorophenyl)ethoxy]-5-fluoro-1,3-benzothiazol-2-yl}urea]"
< 500 nM,< 500 nM,"CC(Oc1cc2sc(NC(=O)NCCN3CCN(C)CC3)nc2cc1F)c1c(Cl)ccc(F)c1Cl (single isomer, unassigned) [Example 76, 1-{6-[(1R*)-1-(2,6-dichloro-3-fluorophenyl)ethoxy]-5-fluoro-1,3-benzothiazol-2-yl}-3-[2-(4-methylpiperazin-1-yl)ethyl]urea]"
< 500 nM,< 500 nM,"CC(Oc1cc2sc(NC(=O)NCCC3CCCN3C)nc2cc1F)c1c(Cl)ccc(F)c1Cl (centres unmarked) [Example 79, 1-{6-[1-(2,6-dichloro-3-fluorophenyl)ethoxy]-5-fluoro-1,3-benzothiazol-2-yl}-3-[2-(1-methylpyrrolidin-2-yl)ethyl]urea]"
< 500 nM,500 to 10000 nM,"CCN(CC)CCNC(=O)Nc1nc2ccc(OC(C)c3c(Cl)ccc(F)c3Cl)cc2s1 (centres unmarked) [Example 82, 1-{6-[1-(2,6-dichloro-3-fluorophenyl)ethoxy]-1,3-benzothiazol-2-yl}-3-[2-(diethylamino)ethyl]urea]"
< 500 nM,< 500 nM,"CC(Oc1cc2sc(NC(=O)NCCO)nc2cc1F)c1c(Cl)ccc(F)c1Cl (centres unmarked) [Example 98, 1-{6-[1-(2,6-dichloro-3-fluorophenyl)ethoxy]-5-fluoro-1,3-benzothiazol-2-yl}-3-(2-hydroxyethyl)urea]"
< 500 nM,< 500 nM,"CC(Oc1cc2[nH]c(NC(=O)NCCN3CCOCC3)nc2cc1F)c1c(Cl)ccc(F)c1Cl (centres unmarked) [Example 6, 1-{6-[1-(2,6-dichloro-3-fluorophenyl)ethoxy]-5-fluoro-1H-benzimidazol-2-yl}-3-(2-morpholin-4-ylethyl)urea]"
< 500 nM,< 500 nM,"CC(Oc1cc2sc(NC(=O)NCCN3CCCC3)nc2cc1F)c1c(Cl)ccc(F)c1Cl (single isomer, unassigned) [Example 85, 1-{6-[(1R*)-1-(2,6-dichloro-3-fluorophenyl)ethoxy]-5-fluoro-1,3-benzothiazol-2-yl}-3-[2-(pyrrolidin-1-yl)ethyl]urea]"
500 to 10000 nM,500 to 10000 nM,"O=C(Nc1nc2ccc(OCc3c(Cl)cccc3Cl)cc2[nH]1)C1CC1 [Example 7, N-{6-[(2,6-dichlorobenzyl)oxy]-1H-benzimidazol-2-yl}cyclopropane carboxamide]"
< 500 nM,< 500 nM,"COCCNC(=O)Nc1nc2cc(F)c(OC(C)c3c(Cl)ccc(F)c3Cl)cc2s1 (centres unmarked) [Example 81, 1-{6-[1-(2,6-dichloro-3-fluorophenyl)ethoxy]-5-fluoro-1,3-benzothiazol-2-yl}-3-(2-methoxyethyl)urea]"
< 500 nM,< 500 nM,"CC(Oc1cc2sc(NC(=O)NCCCN3CCCC3=O)nc2cc1F)c1c(Cl)ccc(F)c1Cl (centres unmarked) [Example 78, 1-{6-[1-(2,6-dichloro-3-fluorophenyl)ethoxy]-5-fluoro-1,3-benzothiazol-2-yl}-3-[3-(2-oxopyrrolidin-1-yl)propyl]urea]"
< 500 nM,< 500 nM,"CNCCNC(=O)Nc1nc2cc(F)c(OC(C)c3c(Cl)ccc(F)c3Cl)cc2s1 (centres unmarked) [Example 96, 1-{6-[1-(2,6-dichloro-3-fluorophenyl)ethoxy]-5-fluoro-1,3-benzothiazol-2-yl}-3-[2-(methylamino)ethyl]urea]"
< 500 nM,500 to 10000 nM,"CC(Oc1cc2sc(NC(=O)NCCN3CCCC3)nc2cc1F)c1c(Cl)ccc(F)c1Cl (centres unmarked) [Example 84, 1-{6-[1-(2,6-dichloro-3-fluorophenyl)ethoxy]-5-fluoro-1,3-benzothiazol-2-yl}-3-[2-(pyrrolidin-1-yl)ethyl]urea]"
500 to 10000 nM,500 to 10000 nM,"CC(Oc1cc2sc(NC(=O)NCCN3CCN(C)CC3)nc2cc1F)c1c(Cl)ccc(F)c1Cl (single isomer, unassigned) [Example 77, 1-{6-[(1S*)-1-(2,6-dichloro-3-fluorophenyl)ethoxy]-5-fluoro-1,3-benzothiazol-2-yl}-3-[2-(4-methylpiperazin-1-yl)ethyl]urea]"
< 500 nM,500 to 10000 nM,"CC(Oc1cc2sc(NC(=O)NCCN)nc2cc1F)c1c(Cl)ccc(F)c1Cl (centres unmarked) [Example 88, 1-(2-aminoethyl)-3-{6-[1-(2,6-dichloro-3-fluorophenyl)ethoxy]-5-fluoro-1,3-benzothiazol-2-yl}urea]"
< 500 nM,< 500 nM,"CC(Oc1cc2sc(NC(=O)NCCN3CCN(C)CC3)nc2cc1F)c1c(Cl)ccc(F)c1Cl (centres unmarked) [Example 75, 1-{6-[1-(2,6-dichloro-3-fluorophenyl)ethoxy]-5-fluoro-1,3-benzothiazol-2-yl}-3-[2-(4-methylpiperazin-1-yl)ethyl]urea]"
500 to 10000 nM,500 to 10000 nM,"CC(Oc1cc2sc(NC(=O)NCCN(C)Cc3ccccc3)nc2cc1F)c1c(Cl)ccc(F)c1Cl (centres unmarked) [Example 94, 1-{2-[benzyl(methyl)amino]ethyl}-3-{6-[1-(2,6-dichloro-3-fluorophenyl)ethoxy]-5-fluoro-1,3-benzothiazol-2-yl}urea]"
< 500 nM,500 to 10000 nM,"CC(Oc1cc2sc(NC(=O)NCCN)nc2cc1F)c1c(Cl)ccc(F)c1Cl (single isomer, unassigned) [Example 89, 1-(2-aminoethyl)-3-{6-[(1R*)-1-(2,6-dichloro-3-fluorophenyl)ethoxy]-5-fluoro-1,3-benzothiazol-2-yl}urea]"
< 500 nM,500 to 10000 nM,"CCN(CC)CCCNC(=O)Nc1nc2ccc(OC(C)c3c(Cl)ccc(F)c3Cl)cc2s1 (centres unmarked) [Example 83, 1-{6-[1-(2,6-dichloro-3-fluorophenyl)ethoxy]-1,3-benzothiazol-2-yl}-3-[3-(diethylamino)propyl]urea]"

Structure (SMILES),IC50 [1],IC50 [2]
CC(Oc1cc2sc(NC(=O)NCCN(C)C(=O)OC(C)(C)C)nc2cc1F)c1c(Cl)ccc(F)c1Cl (centres unmarked) [Example 95],500 to 10000 nM,500 to 10000 nM
